Measurements as given in patent US10351530B2, “Arylcyclohexyl pyrazoles as NRF2 regulators” (GlaxoSmithKline Intellectual Property Development Limited, priority 2015, dated 2019).

Assays:
[1] = system: NQO1 specific enzyme activity in BEAS-2B cells; test: BEAS-2B NQO1 MTT Assay; format: cell-based; details: Homo sapiens, BEAS-2B, 48 h, NQO1 specific activity induction
Text: NAD(P)H:quinone oxidoreductase 1 (NQO1), also called DT diaphorase, is a homodimeric FAD-containing enzyme that catalyzes obligatory NAD(P)H-dependent two-electron reductions of quinones and protects cells against the toxic and neoplastic effects of free radicals and reactive oxygen species arising from one-electron reductions. The transcription of NQO1 is finely regulated by NRF2, and thus NQO1 activity is a good marker for NRF2 activation. On day one, frozen BEAS-2B cells (ATCC) are thawed in a water bath, counted, and re-suspended at a concentration of 250,000 cells/mL. Fifty microliters of cells are plated in 384 well black clear-bottomed plates. Plates are incubated at 37° C., 5% CO2 overnight. On day two, plates are centrifuged and 50 nL of compound or controls are added to the cells. Plates are then incubated at 37° C., 5% CO2 for 48 hours. On day four, medium is aspirated from the plate and crude cell lysates are made by adding 13 uL of 1× Cell Signaling Technologies lysis buffer with 1 Complete, Mini, EDTA-free Protease Inhibitor Tablet (Roche) for each 10 mL of lysis buffer. After lysis plates are incubated for 20 minutes at room temperature. Two microliters of lysate are removed for use in Cell Titer Glo assay (Promega) and MTT cocktail is prepared (Prochaska et. al. 1998) for measurement of NQO1 activity. Fifty microliters of MTT cocktail is added to each well, plate is centrifuged, and analyzed on an Envision plate reader (Perkin Elmer) using Absorbance 570 nm label for 30 minutes. Product formation is measured kinetically and the pEC50 of NQO1 specific activity induction is calculated by plotting the change in absorbance (Delta OD/min) versus the log of compound concentration followed by 3-parameter fitting.

Keap1/NRF2 = target: T1, Keap1/NRF2 (Homo sapiens, UniProt Q14145); test: NRF2-Keap1 FP Assay (Kelch domain (321-609) of Keap1, TAMRA-labeled NRF2 ETGE peptide); format: binding; details: Keap1 (321-609) 20 nM, Tamra labeled peptide 8 nM
T1 construct: Keap1 (321-609) is diluted to 40 nM (2×) in 1× assay buffer
Text: One model for the NRF2-Keap1 interaction is through two binding sites in the Neh2 domain on NRF2. The two sites are referred to as the DLG binding motif (latch domain, uM affinity) and the ETGE binding motif (hinge domain, nM affinity). The Keap1 protein consists of an N-terminal region (NTR), a broad complex, tramtrack, and brick a′ brac domain (BTB), an intervening region (IVR), a double glycine repeat domain (DGR or Kelch), and a C-terminal region. The DLG and ETGE motifs of NRF2's Neh2 domain bind to the Kelch domain of Keap1 at different affinities. In the Keap1 Kelch fluorescence polarization (FP) assay, a TAMRA-labeled 16 mer peptide (AFFAQLQLDEETGEFL) containing the ETGE motif of NRF2 and the Kelch domain (321-609) of Keap1 is used. The assay determines if a compound interferes with the binding between Keap1 […] and the TAMRA-labeled peptide. Binding of TAMRA-labeled NRF2 peptide to Keap1 (321-609) results in a high FP signal. If a compound interferes with the binding between the peptide and the protein, it will cause the assay signal to decrease. Thus, assay signal is inversely proportional to binding inhibition.
100 nl of 100× compound dose response curves (serial 3-fold dilutions) in DMSO are stamped using an Echo liquid handling system (Labcyte) into 384-well low volume black assay plates (Greiner, #784076), with DMSO in columns 6 and 18. The top concentration of compound is located in columns 1 and 13. Keap1 (321-609) is diluted to 40 nM (2×) in 1× assay buffer (50 mM Tris, pH 8.0, 100 mM NaCl, 5 mM MgCl2, 1 mM DTT, 2 mM CHAPS, and 0.005% BSA) and 5 ul is added using a Multidrop Combi (Thermo Electron Corporation) equipped with a metal tip dispenser to all wells of the compound plate, except column 18. Column 18 receives only 5 ul of assay buffer. Immediately, 5 uL of 16 nM (2×) of Tamra labeled peptide (AFFAQLQLDEETGEFL, 21st Century Biochemicals) is added to all wells of the plate. The plates are spun at 500 rpm for 1 min, incubated for 1 hr at room temperature, and read on an Analyst GT (Molecular Devices) equipped with excitation (530/25 nm) and emission (580/10 nm) filters designed for Tamra probes. A 561 nm dichroic mirror is also used in the Analyst. The final assay concentrations of Keap1 (321-609) and Tamra labeled peptide are 20 nM and 8 nM, respectively. Fluorescence measurements, represented as mP, are used in the transformation of the data. Compound activity is calculated based on percent inhibition, normalized against controls in the assay (Control 1 contains the Tamra peptide and Keap1 (321-609) together (0% response) and control 2 contains the Tamra peptide alone (100% response)). Data analysis is handled using the software package Abase XE (Surrey, United Kingdom. The % inhibition values are calculated by the equation: 100−(100*((compound response-average control 2)/(average control 1−average control 2))). For calculation of pIC50s, Abase XE uses a four parameter equation.

NRF2/Keap1 = target: T2, NRF2/Keap1 (Homo sapiens, UniProt Q14145); test: NRF2-Keap1 TR-FRET Assay (full length NRF2 and full length Keap1); format: binding; details: 25 nM Keap1-FlagHis, 50 nM biotin-NRF2 added
T2 construct: full length NRF2 protein and full length Keap1 protein (Keap1 exists a dimer) are used
Text: In the NRF2-Keap1 TR-FRET (time-resolved fluorescence resonance energy transfer) assay, full length NRF2 protein and full length Keap1 protein (Keap1 exists a dimer) are used. The assay detects the ability of compound to displace the binding of FlagHis-tagged Keap1 with biotinylated, Avi-tagged NRF2 protein. Biotin-NRF2 binds to streptavidin-europium (a component of the detection mix) and Keap1-FlagHis is recognized by anti-Flag APC (allophycocyanin) antibody (also a component of the detection mix). If binding occurs between the two proteins, there will be an energy transfer from the Eu+3 (donor) at 615 nm to the APC (acceptor) at 665 nm. A potential Keap1 inhibitor will cause a reduction in the TR-FRET signal by interfering with the binding of Keap1 to NRF2.
One hundred nanoliters of 100× compound dose response curves (serial 3-fold dilutions) in DMSO are stamped using an Echo liquid handling system (Labcyte) into 384-well, low volume, black assay plates (Greiner, #784076), with DMSO in columns 6 and 18. The top concentration of compound is located in columns 1 and 13. All reagents are diluted in assay buffer (50 mM Tris, pH 8.0, 5 mM MgCl2, 100 mM NaCl, 0.005% BSA, 1 mM DTT, and 2 mM CHAPS). The BSA, DTT, and CHAPS are added to the assay buffer on the day of assay. Using a Multidrop Combi (Thermo Electron Corporation) equipped with a metal tip dispenser, 5 ul of 25 nM Keap1-FlagHis protein is added to all wells of the compound plate, with the exception of the wells in column 18. Wells in column 18 receive 5 ul of assay buffer instead. Plates are centrifuged at 500 rpm for 1 minute, covered with a plate lid, and incubated at 37° C. for 2.25 hours. Plates are then removed from the incubator and allowed to cool to RT for 15 minutes. Five microliters of 50 nM biotin-NRF2 protein is then added to all wells of the plates and the plates are spun at 500 rpm for 1 minute, followed by incubating at 4° C. for 1.25 hours. The plates are then allowed to warm to RT for 15 minutes, followed by the addition of 10 ul of detection mix (1 nM Streptavidin Eu+ W1024 and 5 ug/ml mouse anti-DYKDDDDK IgG conjugated to SureLight APC antibody; both from Columbia Biosciences) to all wells. Plates are spun at 500 rpm for 1 minute, incubated for 1 hour at RT, and read on an Envision plate reader using a 320 nm excitation filter and 615 nm and 665 nm emission filters. Compound response (% inhibition) and potency (pIC50) are calculated based on the ratio of the two emissions (665 nm/615 nm) and then the transformed data is normalized against controls in the assay (control 1=1% DMSO in the presence of NRF2 and Keap1 protein and control 2=1% DMSO in the absence of protein). Data analysis is handled using the software package Abase XE (Surrey, United Kingdom). The % inhibition values are calculated from the ratio (transformed) data by the equation: 100−(100*(compound response-average control 2)/(average control 1−average control 2)).
For calculation of pIC50s, Abase XE uses a four parameter equation.

T1 sequence (Q14145 321-609): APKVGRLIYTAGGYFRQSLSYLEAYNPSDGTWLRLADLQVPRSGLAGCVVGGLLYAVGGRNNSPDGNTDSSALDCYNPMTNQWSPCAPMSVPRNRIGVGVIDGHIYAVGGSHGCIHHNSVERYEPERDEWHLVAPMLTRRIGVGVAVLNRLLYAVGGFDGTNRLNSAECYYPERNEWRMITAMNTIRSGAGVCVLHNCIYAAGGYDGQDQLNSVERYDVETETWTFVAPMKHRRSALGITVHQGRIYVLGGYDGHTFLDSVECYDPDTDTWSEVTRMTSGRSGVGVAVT
T2 sequence (Q14145 whole entry): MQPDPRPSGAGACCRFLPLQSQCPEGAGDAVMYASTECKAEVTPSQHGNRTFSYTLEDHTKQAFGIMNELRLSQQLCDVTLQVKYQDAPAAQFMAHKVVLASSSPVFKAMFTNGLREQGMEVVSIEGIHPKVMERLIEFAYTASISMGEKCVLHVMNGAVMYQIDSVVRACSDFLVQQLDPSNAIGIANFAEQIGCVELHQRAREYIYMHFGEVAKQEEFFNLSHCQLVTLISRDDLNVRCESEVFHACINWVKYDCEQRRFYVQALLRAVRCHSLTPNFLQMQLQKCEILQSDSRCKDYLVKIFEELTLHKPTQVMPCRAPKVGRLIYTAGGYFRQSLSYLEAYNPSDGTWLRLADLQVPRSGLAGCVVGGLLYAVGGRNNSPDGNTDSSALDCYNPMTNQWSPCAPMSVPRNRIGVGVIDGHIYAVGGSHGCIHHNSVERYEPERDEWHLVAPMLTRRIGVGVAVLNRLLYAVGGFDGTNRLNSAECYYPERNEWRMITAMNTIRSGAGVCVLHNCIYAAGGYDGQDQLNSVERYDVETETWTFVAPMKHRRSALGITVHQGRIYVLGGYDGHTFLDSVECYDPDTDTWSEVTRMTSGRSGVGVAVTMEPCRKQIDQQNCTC

Row | Structure (SMILES) | EC50 [1] [nM] | IC50 (Keap1/NRF2) [nM] | IC50 (NRF2/Keap1) [nM]
1 | O=C(O)c1cnn(-c2cccc(C3CCC(n4ncc5c4CCC5)C3)c2)c1C1CC1 (mixture of isomers) [Example 10, 1-[3-(3-{1H,4H,5H,6H-cyclopenta[c]pyrazol-1-yl}cyclopentyl)phenyl]-5-cyclopropyl-1H-pyrazole-4-carboxylic Acid] | 1000 to 10000 | 100 to 1000 | 10000 to 100000
2 | CN(C)C(=O)[C@H]1CCC[C@@H](c2cccc(-n3ncc(C(=O)O)c3C3CC3)c2)C1 (racemic) [Example 1, 5-Cyclopropyl-1-{3-[3-(dimethylcarbamoyl)cyclohexyl]phenyl}-1H-pyrazole-4-carboxylic Acid] | 1000 to 10000 | 100 to 1000 | 1000 to 10000
3 | O=C(O)c1cnn(-c2cccc(C3CCCC(n4ncc5c4CCCC5)C3)c2)c1C1CC1 (racemic) [Example 2, 5-Cyclopropyl-1-{3-[3-(4,5,6,7-tetrahydro-1H-indazol-1-yl)cyclohexyl]phenyl}-1H-pyrazole-4-carboxylic Acid] | 1000 to 10000 | 100 to 1000 | 1000 to 10000
4 | O=C(O)c1cnn(-c2cccc([C@H]3CCC[C@@H](C(=O)N4CCCCC4)C3)c2)c1C1CC1 (racemic) [Example 3, 5-Cyclopropyl-1-{3-[3-(piperidine-1-carbonyl)cyclohexyl]phenyl}-1H-pyrazole-4-carboxylic Acid] | 1000 to 10000 | 100 to 1000 | 1000 to 10000
5 | O=C(O)c1cnn(-c2cccc([C@@H]3CCC[C@H](C(=O)N4CCCC5(CCCC5)C4)C3)c2)c1C1CC1 (racemic) [Example 4, 1-[3-(3-{7-Azaspiro[4.5]decane-7-carbonyl}cyclohexyl)phenyl]-5-cyclopropyl-1H-pyrazole-4-carboxylic Acid] | 1000 to 10000 | 100 to 1000 | 1000 to 10000
6 | CCCC1CCCCN1C(=O)[C@H]1CCC[C@@H](c2cccc(-n3ncc(C(=O)O)c3C3CC3)c2)C1 (mixture of isomers) [Example 5, 5-Cyclopropyl-1-{3-[3-(2-propylpiperidine-1-carbonyl)cyclohexyl]phenyl}-1H-pyrazole-4-carboxylic Acid] | 1000 to 10000 | 100 to 1000 | 1000 to 10000
7 | CC1(C)CCCN1C(=O)C1CCCC(c2cccc(-n3ncc(C(=O)O)c3C3CC3)c2)C1 (racemic) [Example 6, 5-cyclopropyl-1-{3-[3-(2,2-dimethylpyrrolidine-1-carbonyl)cyclohexyl]phenyl}-1H-pyrazole-4-carboxylic Acid] | 1000 to 10000 | 100 to 1000 | 1000 to 10000
8 | O=C(O)c1cnn(-c2cccc(C3CCCC(C(=O)N4CCCC45CCCCC5)C3)c2)c1C1CC1 (racemic) [Example 7, 1-[3-(3-{1-Azaspiro[4.5]decane-1-carbonyl}cyclohexyl)phenyl]-5-cyclopropyl-1H-pyrazole-4-carboxylic Acid] | 1000 to 10000 | 100 to 1000 | 1000 to 10000
9 | O=C(O)c1cnn(-c2cccc(C3CCCC(n4ncc5c4CCCCC5)C3)c2)c1C1CC1 (racemic) [Example 9, 1-[3-(3-{1H,4H,5H,6H,7H,8H-cyclohepta[c]pyrazol-1-yl}cyclohexyl)phenyl]-5-cyclopropyl-1H-pyrazole-4-carboxylic Acid] | 1000 to 10000 | 100 to 1000 | 1000 to 10000
10 | O=C(O)c1cnn(-c2cccc(C3CCCC(C(=O)N4CCCC4C4CCC4)C3)c2)c1C1CC1 (racemic) [Example 13, 1-{3-[3-(2-cyclobutylpyrrolidine-1-carbonyl)cyclohexyl]phenyl}-5-cyclopropyl-1H-pyrazole-4-carboxylic Acid] | 1000 to 10000 | 10 to 100 | 100 to 1000
11 | CC1CCc2cnn([C@@H]3CCC[C@H](c4cccc(-n5ncc(C(=O)O)c5C5CC5)c4)C3)c21 (mixture of isomers) [Example 14, 5-Cyclopropyl-1-{3-[(cis)-3-(6-methyl-5,6-dihydro-4H-cyclopentapyrazol-1-yl)-cyclohexyl]-phenyl}-1H-pyrazole-4-carboxylic Acid] | 1000 to 10000 | 100 to 1000 | 1000 to 10000
12 | CCCC1CCc2cnn([C@@H]3CCC[C@H](c4cccc(-n5ncc(C(=O)O)c5C5CC5)c4)C3)c21 (mixture of isomers) [Example 16, 5-Cyclopropyl-1-[3-(3-{6-propyl-1H,4H,5H,6H-cyclopenta[c]pyrazol-1-yl}cyclohexyl)phenyl]-1H-pyrazole-4-carboxylic Acid] | 1000 to 10000 | 100 to 1000 | 1000 to 10000
